Source: paper PMC10986609, “Identification of fungal natural products with potent inhibition in Toxoplasma gondii” (Microbiology Spectrum, 2024)
Like-named read-outs stand apart in the source and are kept apart here. Non-standard residues stand in square brackets, D forms with d. Residues, ends and D or L forms follow the SMILES beside them. *: point of attachment. X2 = CC(C)C[C@@H](C[N+]1=C2CCCN2CCC1)N*; Pip = O=C(O)[C@@H]1CCCCN1; Iva = CC[C@](C)(N)C(=O)O; Aib = CC(C)(N)C(=O)O; βAla = NCCC(=O)O

Columns and labels:
[1] = tested on: human foreskin fibroblasts (HFFs); experiment: HFF cytotoxicity dose response (cell counting kit-8); conditions: for IC50: read-out: HFF IC50 (mean ± SEM); for toxicity to HFFs: highest concentrations tested (20 µM)
Method: (§1) Samples were further diluted by adding an equal volume of media containing 700 parasites. DMSO and […] of KAE609 were used as negative and positive controls, respectively. Assays were performed with a total of three technical replicates and two biological replicates. After incubation for 48 hours, 50 µL of media was removed, and plates were subjected to freezing and thawing. Following this, 10 µL of passive lysis buffer was added and plates were incubated for 15 min at room temperature. Finally, 30 µL of luciferase reagent was added, and the luminescence was measured immediately using a PHERAstar FSX. In parallel, cytotoxicity dose response was performed in the same fashion without the addition of parasites. Cell counting kit-8 reagent (GlpBio; Cat # GK10001) was added at a 1:10 dilution and incubated at 37°C, 5% CO2 for 1 hour. The absorbance was then measured at 450 nm using a PHERAstar FSX. The data management system CDD vault was used for curve fitting and IC50 determination.

[2] = tested on: Toxoplasma gondii tachyzoites (RH88); experiment: microbe, parasite or virus in culture; conditions: read-out: TgRH88 IC50 (mean ± SEM)
Method: For the initial fixed concentration screening and IC50 determination in T. gondii, we utilized a luciferase expressing RH88 strain to quantify the number of live, actively replicating parasites. To construct this strain, the Fluc and DHFR selection markers had been integrated into the UPRT locus through CRISPR/Cas9, rendering the strain pyrimethamine-resistant ([6]). Screening was performed using a pure compound library provided by the University of Oklahoma Natural Products Discovery Group, containing 683 compounds derived primarily from fungal secondary metabolites. For purposes of testing, HFFs were grown in 96-well microtiter plates in preparation. The media we used to grow cells was referred to a D10 media that was composed of Dulbecco's Modified Eagle Medium (Thermo Fisher; Cat # 11995073), 10% Fetal Bovine Serum (Sigma-Aldrich; Cat # 12306C), 1 × non-essential amino acids (100 ×; Thermo Fisher; Cat # 11140050), HEPES buffer (1M; Fisher Scientific; Cat # SH3023701) at 0.4M, and 10 mg/mL of gentamicin (Fisher Scientific; Cat # 15710072). Compounds were then diluted to 10 µM in 100 µL of fresh D10 media. Each plate utilized artemisinin and DMSO vehicle controls. To each well, 2,500 parasites per 100 µL of D10 media were added. Three technical replicates were then performed. After 48 hours, 160 µL of the D10 media was removed, and plates were subjected to freezing then thawing. Following this, 10 µL of the passive lysis buffer (Promega; Cat# E1910) was added and incubated at room temperature for 15 min. Finally, 100 µL of luciferase assay reagent (Promega; Cat# E1501) was added to each well, and luminescence was measured using a PHERAstar FSX plate reader (BMG Labtech, Germany).
as §1, with “For IC50 and cytotoxicity determination, we used 384 plates with confluent HFF cells. Compounds were serially diluted 3-fold with a starting concentration of 20 µM. Samples” for “Samples”

[3] = tested on: Plasmodium falciparum (Dd2); conditions: mean of duplicate or triplicate experiments; read-out: PfDd2 IC50; cited from earlier work
[4] = cytotoxicity, no parasites, 48 hours, CCK-8
[5] = luciferase expressing RH88 in HFF, 48 hours

Molecule	IC50 ([1]; Homo sapiens, Fibroblast, 48 h) [nM]	IC50 ([2]; Toxoplasma gondii, 48 h) [nM]	IC50 [1, 4] [nM]	IC50 [2, 5] [nM]	other results
C[C@H]1Cc2c([nH]c3cc(Cl)c(F)cc23)[C@@]2(N1)C(=O)Nc1ccc(Cl)cc12 [KAE609, reference compound]	> 20000	440 ± 34.8	–	–	–
CN(C)c1ccc2nc3ccc(=[N+](C)C)cc-3sc2c1 [Methylene blue, reference compound]	> 20000	258 ± 0.95	–	–	–
CCC(=O)CCCCCC1NC(=O)C2CCCCN2C(=O)C(C(C)C)NC(=O)C(Cc2cn(OC)c3ccccc23)NC1=O (centres unmarked) [compound 120251, Apicidin C]	> 20000	25.9 ± 10.2	–	–	IC50 [3]: 236 nM
C=C1Cc2ccc3[nH]c4c(c3c2[C@H]2[C@@H]1C[C@@H]2C(C)(C)O)C[C@@H]1CC[C@@]2(O)C3=C[C@@H](O)[C@@H](C(=C)C)O[C@H]3CC[C@]2(C)[C@@]41C [compound 120253, Secopenitrem D]	–	–	> 20000	14100	–
CC(O)[C@@]12SS[C@]3(C(=O)N1C)[C@@H](O)C1([C@@]45c6ccccc6N[C@@H]4N4C(=O)[C@]6(C(C)O)SS[C@]4(C(=O)N6C)[C@H]5O)c4ccccc4N[C@@H]1N3C2=O (some centres unmarked) [compound 130016, Verticillin D]	–	–	943.2 ± 6.4	36.2 ± 1.8	–
C=C[C@H]1C[C@@H](C)C[C@@H](C)[C@@H]1c1c(O)ccn(O)c1=O [compound 130034, Pyridoxatin]	–	–	> 20000	> 8560	–
CC[C@](C)(NC(=O)[C@H](CC(C)C)NC(=O)[C@H](C)NC(=O)C(C)(C)NC(=O)[C@@H]1CCCCN1C(=O)C(C)(C)NC(=O)C(C)(C)NC(=O)CNC(=O)CCNC(=O)[C@H](CC(C)C)NC(=O)C(C)(C)NC(=O)C(C)(C)NC(=O)[C@@H]1CCCCN1C(=O)C(C)(C)NC(=O)[C@@H]1CCCCN1C(C)=O)C(=O)N[C@@H](CC(C)C)C[N+]1=C2CCCN2CCC1 [compound 150003, Efrapeptin F] (Ac-[Pip][Aib][Pip][Aib][Aib]L[βAla]G[Aib][Aib][Pip][Aib]AL[Iva]-X2)	–	–	–	–	toxicity to HFFs [1]: no toxicity
CC[C@](C)(NC(=O)[C@H](CC(C)C)NC(=O)[C@H](C)NC(=O)C(C)(C)NC(=O)[C@@H]1CCCCN1C(=O)C(C)(C)NC(=O)C(C)(C)NC(=O)CNC(=O)CCNC(=O)[C@H](CC(C)C)NC(=O)C(C)(C)NC(=O)[C@](C)(CC)NC(=O)[C@@H]1CCCCN1C(=O)C(C)(C)NC(=O)[C@@H]1CCCCN1C(C)=O)C(=O)N[C@@H](CC(C)C)C[N+]1=C2CCCN2CCC1 [compound 150004, Efrapeptin G] (Ac-[Pip][Aib][Pip][Iva][Aib]L[βAla]G[Aib][Aib][Pip][Aib]AL[Iva]-X2)	–	–	–	–	toxicity to HFFs [1]: no toxicity
CCCCC[C@@H](O)C[C@@H](O)C[C@@H]1Cc2cc3cc(OC)c(-c4c(OC)cc5cc6c(c(O)c5c4O)C(=O)O[C@H](C[C@H](O)C[C@H](O)CCCCC)C6)c(O)c3c(O)c2C(=O)O1 [compound 150020, Dinapinone A]	–	–	6670	3170	–
COC(=O)c1c(Sc2c(O)cc(OC)c(C(=O)c3c(O)cc(C)cc3O)c2C(=O)OC)c(O)cc(OC)c1C(=O)c1c(O)cc(C)cc1O [compound 150052, Polluxochrin]	> 60000	801 ± 163	–	–	–
C[C@H]1CCC/C=C/[C@@H]2C[C@H](O)C[C@H]2[C@H](O)/C=C/C(=O)O1 [compound 160010, Brefeldin A]	6430	243 ± 78.4	–	–	–
CN1C(=O)[C@]2(Cc3cn([C@]45C[C@@]67SS[C@@](CO)(C(=O)N6[C@H]4Nc4ccccc45)N(C)C7=O)c4ccccc34)SS[C@@]1(CO)C(=O)N2C [compound 170066, Chetomin]	369 ± 72.6	62.2 ± 3.75	–	–	–
CC1=C[C@@H]2/C=C(\C)CC[C@H](O)[C@H](O)/C=C/C(=O)[C@]23C(=O)N[C@@H](CC(C)C)[C@@H]3[C@@H]1C [compound 170081, Aspochalasin D]	30300	1270	–	–	–
Alpha-cyclopiazonic acid [compound 170027]	–	–	> 40000	1130	–
PF-1140 [compound 120159]	–	–	> 20000	3290	–
